Laboratory results: US7700522B2, “α-Oxygenated or α-thiolated carboxylic acid phenethylamide derivatives” (Syngenta Crop Protection, Inc., priority 2001, dated 2010)

Columns and labels:
Format in all cases: in vivo
Plasmopara viticola [1] = experiment: D-1a residual-protective action against Plasmopara viticola on vines; conditions: test D-1a, vine seedlings, sprayed 24 hours before infection, untreated plants attack 80-100%, read-out: inhibit fungal infestations
Protocol: (§1) D-1: Action Against Plasmopara Viticola on Vines
(§2) a) Residual-protective Action
Vine seedlings are sprayed at the 4- to 5-leaf stage with a spray mixture (0.02% active ingredient) prepared from a wettable powder formulation of the test compound. After 24 hours, the treated plants are infected with a sporangia suspension of the fungus. Fungus infestation is evaluated after incubation for 6 days at 95-100% relative humidity and +20° C.

Plasmopara viticola [2] = experiment: D-1b residual-curative action against Plasmopara viticola on vines; conditions: test D-1b, vine seedlings, sprayed 24 hours after infection, untreated plants attack 80-100%, read-out: inhibit fungal infestations
Protocol: as §1
b) Residual-curative Action
Vine seedlings are infected at the 4- to 5-leaf stage with a sporangia suspension of the fungus. After incubation for 24 hours in a humidity chamber at 95-100% relative humidity and +20° C., the infected plants are dried and sprayed with a spray mixture (0.02% active ingredient) prepared from a wettable powder formulation of the test compound. After the spray coating has dried, the treated plants are placed in the humidity chamber again. Fungus infestation is evaluated 6 days after infection.

Phytophthora [3] = experiment: D-2a residual-protective action against Phytophthora on tomato plants; conditions: test D-2a, sprayed 48 hours before infection, untreated plants attack 80-100%, read-out: inhibit fungal infestations
Protocol: (§3) D-2: Action Against Phytophthora on Tomato Plants
as §2
(§4) After a cultivation period of 3 weeks, tomato plants are sprayed with a spray mixture (0.02% active ingredient) prepared from a wettable powder formulation of the test compound. After 48 hours, the treated plants are infected with a sporangia suspension of the fungus. Fungus infestation is evaluated after incubation of the infected plants for 5 days at 90-100% relative humidity and +20° C.

Phytophthora [4] = experiment: D-2b systemic action against Phytophthora on tomato plants; conditions: test D-2b, soil watering 96 hours before infection, untreated plants attack 80-100%, read-out: inhibit fungal infestations
Protocol: as §3
as §4, with “watered” for “sprayed”, “ingredient based on the volume of the soil)” for “ingredient)”, “compound. […]” for “compound.”, “96” for “48”, “4” for “5”

Phytophthora [5] = experiment: D-3a residual-protective action against Phytophthora on potato plants; conditions: test D-3a, potato plants (Bintje), sprayed 48 hours before infection, untreated plants attack 80 to 100%, read-out: inhibit fungal infestations
Protocol: (§5) D-3: Action Against Phytophthora on Potato Plants
as §2
(§6) 2-3 week old potato plants (Bintje variety) are sprayed with a spray mixture (0.02% active ingredient) prepared from a wettable powder formulation of the test compound. After 48 hours, the treated plants are infected with a sporangia suspension of the fungus. Fungus infestation is evaluated after incubation of the infected plants for 4 days at 90-100% relative humidity and +20° C.

Phytophthora [6] = experiment: D-3b systemic action against Phytophthora on potato plants; conditions: test D-3b, potato plants (Bintje), soil watering 48 hours before infection, untreated plants attack 80 to 100%, read-out: inhibit fungal infestations
Protocol: as §5
as §6, with “watered” for “sprayed”, “ingredient based on the volume of the soil)” for “ingredient)”, “compound. […]” for “compound.”

Measured: inhibition at 200 ppm

C#CCOc1ccc(CCNC(=O)C(Cc2ccccc2)OCC#C)cc1OC (stereo not shown) [Compound E1.03, N-[2-(3-methoxy-4-prop-2-ynyloxy-phenyl)-ethyl]-3-phenyl-2-prop-2-ynyloxy-propionamide]
80 to 100%: all assays above

C#CCOc1ccc(CCNC(=O)C(Cc2ccc(F)cc2)OCC#C)cc1OC (stereo not shown) [Compound E1.06, 3-(4-fluoro-phenyl)-N-[2-(3-methoxy-4-prop-2-ynyloxy-phenyl)-ethyl]-2-prop-2-ynyloxy-propionamide]
80 to 100%: Phytophthora [3] | Phytophthora [4] | Phytophthora [5] | Phytophthora [6]

C#CCOc1ccc(CCNC(=O)C(Cc2ccc(Cl)cc2)OCC#C)cc1OC (stereo not shown) [Compound E1.10, 3-(4-chloro-phenyl)-N-[2-(3-methoxy-4-prop-2-ynyloxy-phenyl)-ethyl]-2-prop-2-ynyloxy-propionamide]
80 to 100%: all assays above

C#CCOc1ccc(CCNC(=O)C(Cc2ccc(Br)cc2)OCC#C)cc1OC (stereo not shown) [Compound E1.15, 3-(4-bromo-phenyl)-N-[2-(3-methoxy-4-prop-2-ynyloxy-phenyl)-ethyl]-2-prop-2-ynyloxy-propionamide]
80 to 100%: all assays above

C#CCOc1ccc(CCNC(=O)C(Cc2ccc(C)cc2)OCC#C)cc1OC (stereo not shown) [Compound E1.18, N-[2-(3-methoxy-4-prop-2-ynyloxy-phenyl)-ethyl]-2-prop-2-ynyloxy-3-p-tolyl-propionamide]
80 to 100%: Plasmopara viticola [1] | Plasmopara viticola [2]

C#CCOc1ccc(CCNC(=O)C(Cc2ccc(CC)cc2)OCC#C)cc1OC (stereo not shown) [Compound E1.22, 3-(4-ethyl-phenyl)-N-[2-(3-methoxy-4-prop-2-ynyloxy-phenyl)-ethyl]-2-prop-2-ynyloxy-propionamide]
80 to 100%: Plasmopara viticola [1] | Plasmopara viticola [2] | Phytophthora [3] | Phytophthora [4]
